Data on 7 compounds can be found in US6884882B1, “2′-deoxyuridine derivatives and hydrogels formed therewith” (Postech Foundation, priority 2004, dated 2005).

“Also recorded” adds a separate entry of the source.

What all share (assay type): physicochemical
Series [1] in a line: Observation of inner structures of gels by Scanning Electron Microscopy (SEM). The note with it: for gel structure in SEM image: gel prepared by the method of Example 2, lyophilized, platinum coated. As for the experimental part:
The aggregation mode of the gel formed with the 2′-deoxyurindine derivative was observed by Scanning Electron Microscopy (SEM). Gels were prepared using the 2′-deoxyuridine derivatives prepared in 1-4), 1-7), 1-9) and 1-10) by the method of Example 2. Each of the gels was heated to obtain a sol, and a small amount of the sol was converted to a gel cake, which was lyophilized under a vacuum at the liquid nitrogen temperature to remove the solvent, coated with platinum, and examined by SEM.

Series [2] is described as follows: Gelation test (stable-to-inversion-of-the-container method) in water. To be noted: for State: 2 wt % in water, dissolved by sonication and heating, cooled at room temperature for 20 minutes, vessel inverted; for Minimum gel concentration: minimum concentration at which a gel was formed in water; for gelation ability: in water, judged from Table 1. As for the experimental part: In order to determine the extent of gelation of the 2′-deoxyuridine derivative of the present invention, the “stable-to-inversion-of-the-container” method was performed (see F. M. Menger and K. L Caran., J. Am. Chem. Soc., 122, 11679, 2000).
Each of 2′-deoxyuridine derivatives prepared in Example 1 was mixed with water in an amount corresponding to a concentration of 2 wt %, completely dissolved by sonication and heating, and then cooled at room temperature for 20 minutes to induce the formation of a gel. Then, the vessel containing the gel was inverted to see whether or not the content poured out.
Further, the minimum concentration at which a gel was formed (hereinafter, minimum gel concentration) was measured for each of the 2′-deoxyuridine derivatives.

A short description of series [3]: Analysis of thermal stability of hydrogel by differential scanning calorimetry. The note with it: DSC, 30 to 220° C., FIG. 3. As for the experimental part: In order to examine the thermal stability of the 2′-deoxyuridine derivative of the present invention, 1 to 4 mg of the derivative prepared in 1-9) was shaped in the form of a pellet, and differential scanning calorimetry was performed therewith at a temperature ranging from 30 to 220° C.
Background: In DSC, transitions show as peaks or steps in heat flow.

Consider `O=c1[nH]c(=O)n([C@H]2C[C@H](O)[C@@H](CO)O2)cc1-c1cn(Cc2ccccc2)nn1` [1-4), 2′-deoxy-5-[1-(phenylmethyl)-1H-1,2,3-triazol-4-yl]-uridine], for which, in series [1], the “gel structure in SEM image” value is recorded as “lamellar structure”. In series [2], the State entry is given as “White opaque gel” and the Minimum gel concentration worked out at 0.3 wt %.
In the case of `Cc1ccccc1Cn1cc(-c2cn([C@H]3C[C@H](O)[C@@H](CO)O3)c(=O)[nH]c2=O)nn1` [1-5), 2′-deoxy-5-[1-((o-methylphenyl)methyl)-1H-1,2,3-triazol-4-yl]-uridine], in series [2], the State result is recorded as “Unstable white opaque gel” and the Minimum gel concentration came to 3 wt %.
The matching figures for `Cc1cccc(Cn2cc(-c3cn([C@H]4C[C@H](O)[C@@H](CO)O4)c(=O)[nH]c3=O)nn2)c1` [1-6), 2′-deoxy-5-[1-((m-methylphenyl)methyl)-1H-1,2,3-triazol-4-yl]-uridine]: “Unstable white opaque gel” and 1 wt %.
On to `Cc1ccc(Cn2cc(-c3cn([C@H]4C[C@H](O)[C@@H](CO)O4)c(=O)[nH]c3=O)nn2)cc1` [1-7), 2′-deoxy-5-[1-((p-methylphenyl)methyl)-1H-1,2,3-triazol-4-yl]-uridine], for which the “gel structure in SEM image” value in series [1] is “lamellar structure”. In series [2], the State entry is “White opaque gel”, the gelation ability entry is “good gelation ability” and the Minimum gel concentration is recorded as 0.6 wt %.
On to `CCc1ccccc1Cn1cc(-c2cn([C@H]3C[C@H](O)[C@@H](CO)O3)c(=O)[nH]c2=O)nn1` [1-8), 2′-deoxy-5-[1-((o-ethylphenyl)methyl)-1H-1,2,3-triazol-4-yl]-uridine], for which, in series [2], the State result was “Unstable white opaque gel” and the Minimum gel concentration stood at 2 wt %.
For the compound `CCc1ccc(Cn2cc(-c3cn([C@H]4C[C@H](O)[C@@H](CO)O4)c(=O)[nH]c3=O)nn2)cc1` [1-9), 2′-deoxy-5-[1-((p-ethylphenyl)methyl)-1H-1,2,3-triazol-4-yl]-uridine], in series [3], the “melting point peak of the gel phase” value was found to be 201 °C and the “melting point peak of the solid phase” value was determined as 200 °C. In series [1] (concentration lowered from 2 to 0.25 wt %, FIG. 2), the “gel structure in SEM image on lowering the concentration” value is listed as “looser fiber structure having a larger void volume”. For the same compound, in series [1], the “gel structure in SEM image” value was “fiber structure”. In series [2], the State result is “White opaque gel”, the gelation ability result is “good gelation ability; also recorded: best gelation ability” and the Minimum gel concentration came out at 0.2 wt %.
On to `CCCCc1ccc(Cn2cc(-c3cn([C@H]4C[C@H](O)[C@@H](CO)O4)c(=O)[nH]c3=O)nn2)cc1` [1-10), 2′-deoxy-5-[1-((p-butylphenyl)methyl)-1H-1,2,3-triazol-4-yl]-uridine], for which the “gel structure in SEM image” value in series [1] was “lamellar structure”. In series [2], the State entry was “White opaque gel”, the gelation ability entry is listed as “good gelation ability” and the Minimum gel concentration is given as 0.8 wt %.
